From patent US5849259A, “3-,8-substituted deuteroporphyrin derivatives, pharmaceutical agents containing the latter and process for their production” (priority 1992, dated 1998)

System: DMBA-induced breast cancer
Assay: Signal intensity change in tissues of rats with DMBA-induced breast cancer, Bruker Biospec 2.35 Tesla, MSVE
Format: in vivo
Set-up: key to enhancement, Tumor / enhancement, Liver / enhancement, Kidneys / enhancement, Muscle: signal intensity relative to an internal standard
Experimental: b) On a Bruker Biospec nuclear spin tomograph (2.35 Tesla), the signal intensity change in various tissues of rats with a DMBA-induced breast cancer was studied after i.v. administration of 0.05 mmol/kg or 0.1 mmol of the compound of example 1c (20 mmol/l, pH 7.2; 37° C. in bidistilled water). The measurements took place with a multi slice variable echo sequence (MSVE). Imaging parameters: TR: 400 ms, TE: 25 ms, layer thickness: 4 mm, number of averages: 4/slice, matrix 256^2.
After a preliminary image, 0.05 mmol/kg or 0.1 mmol/kg of the substance was administered and the signal intensity change (relative to an internal standard) was studied.
The ^1 H-NMR images of the DMBA-induced breast cancer after administration of 0.1 mmol/kg i.v. after 5 minutes or 3 or 24 hours p.i. are reproduced in FIG. 1.

Substance: N,N'-Bis[9-carboxylato-2,5,8-tris(carboxylatomethyl)-2,5,8-triazanonyl-carbamoyl]-mesoporphyrin-IX-13,17-diamide, digadolinium complex, disodium salt [Example 1c]
- signal intensity change, kidneys (0.05 mmol/kg i.v.): stronger signal intensity change
- signal intensity change, muscle (0.05 or 0.1 mmol/kg i.v., up to 24 hours p.i.): only a slight change
- enhancement, Kidneys (1 min, 0.1 mmol/kg i.v.): 1.16
- enhancement, Liver (1 min, 0.1 mmol/kg i.v.): 1.55
- enhancement, Muscle (1 min, 0.1 mmol/kg i.v.): 1.46
- enhancement, Tumor (1 min, 0.1 mmol/kg i.v.): 2.48
- enhancement, Kidneys (5 min, 0.05 mmol/kg i.v.): 2.57
- enhancement, Liver (5 min, 0.05 mmol/kg i.v.): 1.48
- enhancement, Muscle (5 min, 0.05 mmol/kg i.v.): 1.34
- enhancement, Tumor (5 min, 0.05 mmol/kg i.v.): 1.88
- signal intensity change, liver tissue and tumors (5 minutes p.i., 0.05 or 0.1 mmol/kg i.v.): marked signal intensity increase
- enhancement, Kidneys (15 min, 0.05 mmol/kg i.v.): 2.81
- enhancement, Liver (15 min, 0.05 mmol/kg i.v.): 1.29
- enhancement, Muscle (15 min, 0.05 mmol/kg i.v.): 1.26
- enhancement, Tumor (15 min, 0.05 mmol/kg i.v.): 1.97
- enhancement, Kidneys (15 min, 0.1 mmol/kg i.v.): 2.36
- enhancement, Liver (15 min, 0.1 mmol/kg i.v.): 1.61
- enhancement, Muscle (15 min, 0.1 mmol/kg i.v.): 1.30
- enhancement, Tumor (15 min, 0.1 mmol/kg i.v.): 2.40
- enhancement, Kidneys (26 min, 0.1 mmol/kg i.v.): 2.33
- enhancement, Liver (26 min, 0.1 mmol/kg i.v.): 1.45
- enhancement, Muscle (26 min, 0.1 mmol/kg i.v.): 1.37
- enhancement, Tumor (26 min, 0.1 mmol/kg i.v.): 2.41
- enhancement, Kidneys (30 min, 0.05 mmol/kg i.v.): 2.94
- enhancement, Liver (30 min, 0.05 mmol/kg i.v.): 1.42
- enhancement, Muscle (30 min, 0.05 mmol/kg i.v.): 1.22
- enhancement, Tumor (30 min, 0.05 mmol/kg i.v.): 1.71
- enhancement, Kidneys (40 min, 0.1 mmol/kg i.v.): 2.38
- enhancement, Liver (40 min, 0.1 mmol/kg i.v.): 1.51
- enhancement, Muscle (40 min, 0.1 mmol/kg i.v.): 1.23
- enhancement, Tumor (40 min, 0.1 mmol/kg i.v.): 2.34
- enhancement, Kidneys (45 min, 0.05 mmol/kg i.v.): 2.84
- enhancement, Liver (45 min, 0.05 mmol/kg i.v.): 1.49
- enhancement, Muscle (45 min, 0.05 mmol/kg i.v.): 1.12
- enhancement, Tumor (45 min, 0.05 mmol/kg i.v.): 1.71
- enhancement, Kidneys (60 min, 0.05 mmol/kg i.v.): 2.53
- enhancement, Liver (60 min, 0.05 mmol/kg i.v.): 1.52
- enhancement, Muscle (60 min, 0.05 mmol/kg i.v.): 1.10
- enhancement, Tumor (60 min, 0.05 mmol/kg i.v.): 1.50
- enhancement, Kidneys (60 min, 0.1 mmol/kg i.v.): 1.86
- enhancement, Liver (60 min, 0.1 mmol/kg i.v.): 1.36
- enhancement, Muscle (60 min, 0.1 mmol/kg i.v.): 1.23
- enhancement, Tumor (60 min, 0.1 mmol/kg i.v.): 2.34
- enhancement, Kidneys (71 min, 0.1 mmol/kg i.v.): 1.66
- enhancement, Liver (71 min, 0.1 mmol/kg i.v.): 1.62
- enhancement, Muscle (71 min, 0.1 mmol/kg i.v.): 1.17
- enhancement, Tumor (71 min, 0.1 mmol/kg i.v.): 2.36
- enhancement, Kidneys (75 min, 0.05 mmol/kg i.v.): 2.47
- enhancement, Liver (75 min, 0.05 mmol/kg i.v.): 1.50
- enhancement, Muscle (75 min, 0.05 mmol/kg i.v.): 1.04
- enhancement, Tumor (75 min, 0.05 mmol/kg i.v.): 1.71
- enhancement, Kidneys (85 min, 0.1 mmol/kg i.v.): 1.64
- enhancement, Liver (85 min, 0.1 mmol/kg i.v.): 1.48
- enhancement, Muscle (85 min, 0.1 mmol/kg i.v.): 1.32
- enhancement, Tumor (85 min, 0.1 mmol/kg i.v.): 2.39
- enhancement, Kidneys (90 min, 0.05 mmol/kg i.v.): 2.15
- enhancement, Liver (90 min, 0.05 mmol/kg i.v.): 1.53
- enhancement, Muscle (90 min, 0.05 mmol/kg i.v.): 1.11
- enhancement, Tumor (90 min, 0.05 mmol/kg i.v.): 1.62
- enhancement, Kidneys (105 min, 0.05 mmol/kg i.v.): 2.63
- enhancement, Liver (105 min, 0.05 mmol/kg i.v.): 1.63
- enhancement, Muscle (105 min, 0.05 mmol/kg i.v.): 1.07
- enhancement, Tumor (105 min, 0.05 mmol/kg i.v.): 1.75
- enhancement, Kidneys (115 min, 0.1 mmol/kg i.v.): 2.43
- enhancement, Liver (115 min, 0.1 mmol/kg i.v.): 1.62
- enhancement, Muscle (115 min, 0.1 mmol/kg i.v.): 1.23
- enhancement, Tumor (115 min, 0.1 mmol/kg i.v.): 2.38
- enhancement, Kidneys (150 min, 0.1 mmol/kg i.v.): 2.27
- enhancement, Liver (150 min, 0.1 mmol/kg i.v.): 1.48
- enhancement, Muscle (150 min, 0.1 mmol/kg i.v.): 1.17
- enhancement, Tumor (150 min, 0.1 mmol/kg i.v.): 2.31
- enhancement, Kidneys (160 min, 0.05 mmol/kg i.v.): 2.38
- enhancement, Liver (160 min, 0.05 mmol/kg i.v.): 1.47
- enhancement, Muscle (160 min, 0.05 mmol/kg i.v.): 1.07
- enhancement, Tumor (160 min, 0.05 mmol/kg i.v.): 1.69
- enhancement, Kidneys (180 min, 0.05 mmol/kg i.v.): 2.54
- enhancement, Liver (180 min, 0.05 mmol/kg i.v.): 1.57
- enhancement, Muscle (180 min, 0.05 mmol/kg i.v.): 1.02
- enhancement, Tumor (180 min, 0.05 mmol/kg i.v.): 1.67
- enhancement, Kidneys (180 min, 0.1 mmol/kg i.v.): 2.18
- enhancement, Liver (180 min, 0.1 mmol/kg i.v.): 1.59
- enhancement, Muscle (180 min, 0.1 mmol/kg i.v.): 1.22
- enhancement, Tumor (180 min, 0.1 mmol/kg i.v.): 2.38
- enhancement, Kidneys (24 hours, 0.05 mmol/kg i.v.): 1.17
- enhancement, Liver (24 hours, 0.05 mmol/kg i.v.): 0.93
- enhancement, Muscle (24 hours, 0.05 mmol/kg i.v.): 1.07
- enhancement, Tumor (24 hours, 0.05 mmol/kg i.v.): 1.31
- enhancement, Kidneys (24 hours, 0.1 mmol/kg i.v.): 0.94
- enhancement, Liver (24 hours, 0.1 mmol/kg i.v.): 1.33
- enhancement, Muscle (24 hours, 0.1 mmol/kg i.v.): 1.15
- enhancement, Tumor (24 hours, 0.1 mmol/kg i.v.): 2.02
